Calls of active or inactive are those of the source. No cut-off for these calls is given here.
Key:
HMC1 [1] = experiment: Inhibition of FCepsilonRI expression in human HMC1 cells at 100 uM after 72 hrs by flow cytometry; assay type: functional, cell-based
HMC1 [2] = experiment: Inhibition of FCepsilonRI expression in human HMC1 cells at 50 to 100 uM after 72 hrs by flow cytometry; assay type: functional, cell-based
[3] = Cytotoxicity against human HMC1 cells assessed induction of morphological changes at 50 uM; settings: hmc1, 50 µM
[4] = Cytotoxicity against human HMC1 cells assessed induction of cell death at 50 uM; assay type: cell-based; settings: hmc1, 50 µM
HMC1 [5] = experiment: Inhibition of FCepsilonRI gamma subunit mRNA expression in human HMC1 cells at 50 uM after 36 hrs by RT-PCR analysis; assay type: functional, cell-based
HMC1 [6] = experiment: Inhibition of FCepsilonRI beta subunit mRNA expression in human HMC1 cells at 50 uM after 36 hrs by RT-PCR analysis; assay type: functional, cell-based
HMC1 [7] = experiment: Inhibition of FCepsilonRI alpha subunit mRNA expression in human HMC1 cells at 50 uM after 36 hrs by RT-PCR analysis; assay type: functional, cell-based

| Structure (SMILES) | inhibition (HMC1 [1]) | inhibition (HMC1 [2]) | Activity [3] | other results |
| --- | --- | --- | --- | --- |
| O=C(O[C@@H]1Cc2c(O)cc(O)cc2O[C@H]1c1cc(O)c(O)c(O)c1)c1cc(O)c(O)c(O)c1 | Active |  |  |  |
| COc1c(O)cc(C(=O)O[C@@H]2Cc3c(O)cc(O)cc3O[C@@H]2c2cc(O)c(O)c(O)c2)cc1O | inactive | inactive |  |  |
| Oc1cc(O)c2c(c1)O[C@H](c1ccc(O)c(O)c1)[C@H](O)C2 | Active |  |  |  |
| O=c1cc(-c2ccc(O)c(O)c2)oc2c([C@@H]3O[C@H](CO)[C@@H](O)[C@H](O)[C@H]3O)c(O)cc(O)c12 [ORIENTIN] |  |  | Toxic |  |
| O=c1cc(-c2ccccc2)oc2cc(O)c(O)c(O)c12 [BAICALEIN] |  |  | Toxic |  |
| COc1cc(C(=O)O[C@@H]2Cc3c(O)cc(O)cc3O[C@@H]2c2cc(O)c(O)c(O)c2)cc(O)c1O | inactive | inactive |  |  |
| COc1c(O)cc([C@H]2Oc3cc(O)cc(O)c3C[C@H]2OC(=O)c2cc(O)c(O)c(O)c2)cc1O | inactive | inactive |  |  |
| Oc1cc(O)c2cc(O)c(-c3ccc(O)c(O)c3)[o+]c2c1 [CYANIDIN] |  |  | Toxic |  |
| COc1c(O)cc(O)c2c(=O)cc(-c3ccccc3)oc12 [WOGONIN] |  |  | Toxic |  |
| O=c1cc(-c2ccc(O)cc2)oc2cc(O)c(O)c(O)c12 [SCUTELLAREIN] |  |  |  | Activity [4]: Toxic |
| O=c1cc(-c2ccccc2)oc2c(O)c(O)cc(O)c12 [NORWOGONIN] |  |  |  | Activity [4]: Toxic |
| COc1cc([C@H]2Oc3cc(O)cc(O)c3C[C@H]2OC(=O)c2cc(O)c(O)c(O)c2)cc(O)c1O | inactive | inactive |  |  |
| Oc1cc(O)c2cc(O)c(-c3cc(O)c(O)c(O)c3)[o+]c2c1 |  | Active |  |  |
| O=c1cc(-c2ccc(O)cc2)oc2cc(O)cc(O)c12 [APIGENIN] |  |  | Toxic |  |
| O=c1cc(-c2cc(O)c(O)c(O)c2)oc2cc(O)cc(O)c12 |  | Active |  |  |
| O=C(O[C@@H]1Cc2c(O)cc(O)cc2O[C@@H]1c1ccc(O)c(O)c1)c1cc(O)c(O)c(O)c1 | Active |  |  |  |
| O=C(O[C@@H]1Cc2c(O)cc(O)cc2O[C@@H]1c1cc(O)c(O)c(O)c1)c1cc(O)c(O)c(O)c1 |  |  |  | inhibition (HMC1 [5]): Active; inhibition (HMC1 [6]): inactive; inhibition (HMC1 [7]): inactive |
| COc1cc(-c2[o+]c3cc(O)cc(O)c3cc2O)cc(OC)c1O [MALVIDIN] |  |  | Toxic |  |
| O=c1cc(-c2ccc(O)c(O)c2)oc2cc(O)cc(O)c12 [LUTEOLIN] |  |  | Toxic |  |

From ChEMBL document CHEMBL1156298, “New inhibitors for expression of IgE receptor on human mast cell” (Bioorg Med Chem Lett, 2010)
